# Like-named read-outs stand apart in the source and are kept apart here.
# Experiments:
# [1] = system: pancreatic cancer tumor cells; conditions: for Number of live animals remaining in the groups after 30 days of treatment: 30 mice per group
# Description: (§1) The survival time of mice after tumor injection and treatment was studied.
# (§2) The biological composition comprising 10^8 cells per ml of activated and conditioned yeast cells of the strain Saccharomyces cerevisiae Hansen strain IFFI 1413 was prepared by the methods described in Section 5.1 and subsections therein.
# The animals were prepared in a similar manner as described in Section 6.1.
# The mice injected with tumor cells were divided into 4 experimental groups of ten mice per group and one control group. The four experimental groups were triplicated (i.e., using a total of 120 mice in the experimental groups). In group 2AY, the mice received 0.3 ml of the biological composition once per day. In group 2NY, the mice received 0.3 ml of the untreated yeast cells once per day. In group 2VDS, the mice were injected intravenously with 3 mg of vindesine (VDS) per kg body weight once a week for four weeks. In group 2CK1, the mice received 0.3 ml of physiological saline once per day.
# (§3) The mice received the biological compositions, untreated yeast cells, VDS or saline on the same day as the tumor cells were transplanted. The mice in group 2CK2 also started receiving saline on the same day as the other four groups. The biological compositions, untreated yeast cells and saline were administered orally by a feeding tube and the VDS by intravenous injection for 30 consecutive days. The mice were observed over 6 months from the day of tumor inoculation and survival was recorded. The weight of the mice as well as the weight of the tumor were determined by standard techniques.
# [2] = system: pancreatic cancer tumor cells; test: BALB/c mouse model of human pancreatic cancer, growth of tumors; conditions: tumor-bearing BALB/c mice, 30 consecutive days of treatment, sacrificed on 31st day from tumor inoculation
# Description: as §2
# The mice injected with tumor cells were divided into 4 experimental groups of ten mice per group and one control group. The four experimental groups were triplicated (i.e., using a total of 120 mice in the experimental groups).
# The mice in group CK2 also started receiving saline on the same day as the other four groups. The biological compositions, untreated yeast cells and saline were administered orally by a feeding tube and the VDS by intravenous injection for 30 consecutive days.
# [3] = system: mouse pancreatic cancer cell line MPC-83; test: kun ming mouse model of pancreatic cancer (MPC-83), growth of tumors; conditions: MPC-83-bearing kun ming mice, 30 consecutive days of treatment, sacrificed on 31st day from tumor inoculation
# Description: as §2
# The mice injected with tumor cells were kept for 5 days and were divided into 4 experimental groups of ten mice per group and one control group. The four experimental groups were triplicated (i.e., using a total of 120 mice in the experimental groups).
# The mice received the biological compositions, untreated yeast cells, MMC or saline on the same day as the tumor cells were transplanted. The mice in group CK2 also started receiving saline on the same day as the other four groups. The biological compositions, untreated yeast cells and saline were administered orally by a feeding tube and the MMC by intravenous injection for 30 consecutive days.
# [4] = system: mouse pancreatic cancer cell line MPC-83; conditions: for Number of live animals remaining in the groups after 30 days of treatment: 30 mice per group
# Description: as §1
# The biological composition comprising 10^8 per ml of activated and conditioned yeast cells of the strain Saccharomyces cerevisiae Hansen strain IFFI 1413 was prepared by the methods described in Section 5.1 and subsections therein.
# The animals were prepared in a similar manner as described in Section 8.1.
# The mice injected with tumor cells were kept for 5 days and were divided into 4 experimental groups of ten mice per group and one control group. The four experimental groups were triplicated (i.e., using a total of 120 mice in the experimental groups). In group 2AY, the mice received 0.5 ml of the biological composition once per day. In group 2NY, the mice received 0.5 ml of the untreated yeast cells once per day. In group 2MMC, the mice were injected intravenously with 1.5×10^5 units of mitomycin C (MMC) per kg body weight per day. In group 2CK1, the mice received 0.5 ml of physiological saline once per day.
# as §3, with “MMC” for “VDS”
# [5] = 0 month after cessation of treatment
# [6] = 1 month after cessation of treatment
# [7] = 2 months after cessation of treatment
# [8] = 3 months after cessation of treatment
# [9] = 4 months after cessation of treatment
# [10] = 5 months after cessation of treatment
# [11] = 6 months after cessation of treatment
# [12] = mice that survived, observed over 6 months from tumor inoculation
smiles,measurement,setting,value
"CC[C@]1(O)C[C@@H]2CN(CCc3c([nH]c4ccccc34)[C@@](C(=O)OC)(c3cc4c(cc3OC)N(C)[C@H]3[C@@](O)(C(N)=O)[C@H](O)[C@]5(CC)C=CCN6CC[C@]43[C@@H]65)C2)C1 [Group 2VDS, vindesine]",Number of live animals remaining in the groups after 30 days of treatment,[1]; [5],30
same,Number of live animals remaining in the groups after 30 days of treatment,[1]; [6],30
same,Number of live animals remaining in the groups after 30 days of treatment,[1]; [7],27
same,Number of live animals remaining in the groups after 30 days of treatment,[1]; [8],27
same,Number of live animals remaining in the groups after 30 days of treatment,[1]; [9],11
same,Number of live animals remaining in the groups after 30 days of treatment,[1]; [10],0
same,Number of live animals remaining in the groups after 30 days of treatment,[1]; [11],0
same,survival time of mice bearing pancreatic cancer cells,"[1]; BALB/c mice, 30 days of treatment, from injection of tumor cells",all died after four months
same,mean weight of mice and standard deviation,[1]; [12],all animals dead
same,mean weight of tumor nodules and standard deviation,[1]; [12],all animals dead
"CO[C@@]12[C@H](COC(N)=O)C3=C(C(=O)C(C)=C(N)C3=O)N1C[C@@H]1N[C@@H]12 [Group MMC, mitomycin C]",mean weight of mice and standard deviation,[2],18.9 ± 3.4 g
same,mean weight of tumor nodules and standard deviation,[2],1.37 ± 0.7 mg
same,mean weight of mice and standard deviation,[3],18.3 ± 1.5 g
same,mean weight of tumor nodules and standard deviation,[3],2.8 ± 1.2 g
same,Number of live animals remaining in the groups after 30 days of treatment,[4]; [5],30
same,Number of live animals remaining in the groups after 30 days of treatment,[4]; [6],27
same,Number of live animals remaining in the groups after 30 days of treatment,[4]; [7],21
same,Number of live animals remaining in the groups after 30 days of treatment,[4]; [8],7
same,Number of live animals remaining in the groups after 30 days of treatment,[4]; [9],0
same,Number of live animals remaining in the groups after 30 days of treatment,[4]; [10],0
same,Number of live animals remaining in the groups after 30 days of treatment,[4]; [11],0
same,survival time of mice bearing pancreatic cancer cells,"[4]; kun ming mice, 30 days of treatment, from injection of tumor cells",all died after four months
same,mean weight of mice and standard deviation,[4]; [12],all animals dead
same,mean weight of tumor nodules and standard deviation,[4]; [12],all animals dead

# From US20040253261A1, “Biological compositions and methods for treatment of pancreatic cancer” (priority 2003, published 2004)
